Laboratory results as given in ChEMBL document CHEMBL3763074, “Hesperetin derivatives: Synthesis and anti-inflammatory activity” (Bioorg Med Chem Lett, 2016).
Activity calls are given as the source filed them. The rule behind the calls is not given here.

Tests used:
[1] = Octanol/water partition coefficient, logP of the compound by shake flask method; assay type: physicochemical
RAW264.7 [2] = assay: Antiinflammatory activity in mouse RAW264.7 assessed as decrease in LPS-induced IL-6 production at 10 uM pretreated with 1 ug/ml LPS for 22 hrs followed by addition of compound for 24 hrs by ELISA; assay type: functional, cell-based
RAW264.7 [3] = assay: Cytotoxicity against mouse RAW264.7 cells at 1 to 10 uM for 24 hrs by MTT assay; assay type: cell-based; settings: raw264.7, 24 h
RAW264.7 [4] = assay: Antiinflammatory activity in mouse RAW264.7 assessed as decrease in LPS-induced TNF-alpha production at 10 uM pretreated with 1 ug/ml LPS for 22 hrs followed by addition of compound for 24 hrs by ELISA; assay type: functional, cell-based
RAW264.7 [5] = assay: Cytotoxicity against mouse RAW264.7 cells at 100 uM for 24 hrs by MTT assay; assay type: cell-based; settings: raw264.7, 24 h
RAW264.7 [6] = assay: Antiinflammatory activity in mouse RAW264.7 assessed as inhibition of LPS-induced notch-1 expression at 10 uM pretreated with 1 ug/ml LPS for 22 hrs followed by addition of compound for 24 hrs by Western blot analysis; assay type: functional, cell-based
RAW264.7 [7] = assay: Antiinflammatory activity in LPS-induced mouse RAW264.7 assessed as inhibition of LPS-induced iNOS expression pretreated with 1 ug/ml LPS for 22 hrs followed by addition of compound for 24 hrs by Western blot analysis; assay type: functional, cell-based
RAW264.7 [8] = assay: Antiinflammatory activity in mouse RAW264.7 assessed as decrease in LPS-induced TNF-alpha production pretreated with 1 ug/ml LPS for 22 hrs followed by addition of compound for 24 hrs by ELISA; assay type: functional, cell-based
RAW264.7 [9] = assay: Antiinflammatory activity in mouse RAW264.7 assessed as decrease in LPS-induced IL-6 production pretreated with 1 ug/ml LPS for 22 hrs followed by addition of compound for 24 hrs by ELISA; assay type: functional, cell-based

SMILES | logP [1] | Activity (RAW264.7 [2]) | Activity (RAW264.7 [3]) | Activity (RAW264.7 [4]) | Activity (RAW264.7 [5]) | Activity (RAW264.7 [6]) | Activity (RAW264.7 [7]) | Activity (RAW264.7 [8]) | Activity (RAW264.7 [9])
COc1ccc(CCNCc2c(O)cc3c(c2O)C(=O)C[C@@H](c2ccc(OC)c(O)c2)O3)cc1 | 1.56 | Active | Non-toxic | Active | Toxic |  |  |  | 
COc1ccc([C@@H]2CC(=O)c3c(cc(O)c(CNCCc4ccc([N+](=O)[O-])cc4)c3O)O2)cc1O | 1.73 | Active |  | Active |  |  |  |  | 
COc1ccc([C@@H]2CC(=O)c3c(cc(O)c(CNC(C)(C)C)c3O)O2)cc1O | -0.76 | Active | Non-toxic | Active | Toxic | Active | Dose-dependent effect | Dose-dependent effect | Dose-dependent effect
COc1ccc([C@@H]2CC(=O)c3c(cc(O)c(CNCCc4ccc(Cl)cc4)c3O)O2)cc1O | 1.77 | Active |  | Active |  |  |  |  | 
COc1ccc([C@@H]2CC(=O)c3c(cc(O)c(CNC(C)C)c3O)O2)cc1O | -0.26 | Active | Non-toxic | Active |  | Active |  | Dose-dependent effect | Dose-dependent effect
CCC(C)NCc1c(O)cc2c(c1O)C(=O)C[C@@H](c1ccc(OC)c(O)c1)O2 (stereo not given in full) | 0.04 | Active |  | Active |  |  |  |  | 
CCN(CC)Cc1c(O)cc2c(c1O)C(=O)C[C@@H](c1ccc(OC)c(O)c1)O2 | 1.68 | Active | Non-toxic | Active |  |  |  |  | 
COc1ccc2c(c1)c(CC(=O)O)c(C)n2C(=O)c1ccc(Cl)cc1 |  | Active |  | Active |  |  |  |  | 
COc1ccc([C@@H]2CC(=O)c3c(cc(O)c(CNCCc4ccccc4)c3O)O2)cc1O | 1.67 | Active | Non-toxic | Active | Toxic |  |  |  | 
COc1ccc([C@@H]2CC(=O)c3c(cc(O)c(CNC(C)c4ccccc4)c3O)O2)cc1O (stereo not given in full) | 1.72 | Active |  | Active |  |  |  |  | 
COc1ccc([C@@H]2CC(=O)c3c(O)cc(O)cc3O2)cc1O [HESPERETIN] | 2.15 | Active | Non-toxic | Active |  |  |  |  | 
COc1ccc([C@@H]2CC(=O)c3c(cc(O)c(CNCCCN4CCOCC4)c3O)O2)cc1O | 1.2 | Active |  | Active |  |  |  |  | 

Further lines, with some results ahead:

logP [1] | SMILES | Activity (RAW264.7 [2]) | Activity (RAW264.7 [3]) | Activity (RAW264.7 [4]) | Activity (RAW264.7 [5]) | Activity (RAW264.7 [6]) | Activity (RAW264.7 [7]) | Activity (RAW264.7 [8]) | Activity (RAW264.7 [9])
1.23 | COc1ccc([C@@H]2CC(=O)c3c(cc(O)c(CN4CCOCC4)c3O)O2)cc1O | Active |  | Active |  |  |  |  | 
1.03 | COc1ccc([C@@H]2CC(=O)c3c(cc(O)c(CN(C)C)c3O)O2)cc1O | Active |  | Active |  |  |  |  | 
1.18 | COc1ccc([C@@H]2CC(=O)c3c(cc(O)c(CN4CCN(CCN5CCOCC5)CC4)c3O)O2)cc1O | Active |  | Active |  |  |  |  | 
-0.75 | CCN1CCN(Cc2c(O)cc3c(c2O)C(=O)C[C@@H](c2ccc(OC)c(O)c2)O3)CC1 | Active | Non-toxic | Active | Toxic | Active |  | Dose-dependent effect | Dose-dependent effect
1.19 | COc1ccc([C@@H]2CC(=O)c3c(cc(O)c(CN4CCN(C)CC4)c3O)O2)cc1O | Active | Non-toxic | Active |  |  |  |  | 
1.15 | COc1ccc([C@@H]2CC(=O)c3c(cc(O)c(CN4CCN(CCO)CC4)c3O)O2)cc1O | Active |  | Active |  |  |  |  | 
